Among the data in patent publication US6433188B1, “Fused heteroaromatic glucokinase activators” (priority 2000, dated 2002) are melting point values, retold here.

`CS(=O)(=O)c1ccc(C(CC2CCCC2)C(=O)Nc2ccc3ccccc3n2)cc1C(F)(F)F` (stereo not drawn) [Example 30, 3-Cyclopentyl-2-(4-methanesulfonyl-3-trifluoromethyl-phenyl)-N-quinolin-2-yl-propionamide]: the melting point (in general, the temperature of the solid-liquid transition) lay within 90 to 95 °C.

Compound `CS(=O)(=O)c1ccc(C(CC2CCCC2)C(=O)Nc2nc3ccccc3o2)cc1[N+](=O)[O-]` (stereo not drawn) [Example 33, N-Benzoxazol-2-yl-3-cyclopentyl-2-(4-methanesulfonyl-3-nitro-phenyl)-propionamide] registered a melting point of 106 to 111 °C.

`O=C(Nc1nc2c(s1)CCCC2)C(CC1CCCC1)c1ccc(Cl)c(Cl)c1` (stereo not drawn) [Example 1, 3-Cyclopentyl-2-(3,4-dichloro-phenyl)-N-(4,5,6,7-tetrahydro-benzothiazol-2-yl)-propionamide] gave a melting point of 170 to 171 °C.

The compound `CS(=O)(=O)c1ccc(C(CC2CCCC2)C(=O)Nc2nc3ccccc3s2)cc1C#N` (stereo not drawn) [Example 26, N-Benzothiazol-2-yl-2-(3-cyano-4-methanesulfonyl-phenyl)-3-cyclopentyl-propionamide] registered a melting point of 115 to 118 °C.

`O=C(Nc1nc2ccccc2s1)C(CC1CCCC1)c1ccc(Cl)c(Cl)c1` (stereo not drawn) [Example 2, N-Benzothiazol-2-yl-3-cyclopentyl-2-(3,4-dichloro-phenyl)-propionamide] yielded a melting point of 104 to 105 °C.

`CS(=O)(=O)c1ccc(C(CC2CCCC2)C(=O)Nc2ccc3ccccc3n2)cc1Br` (stereo not drawn) [Example 25, 2-(3-Bromo-4-methanesulfonyl-phenyl)-3-cyclopentyl-N-quinolin-2-yl-propionamide] had a melting point of 95 to 100 °C.

The compound `CS(=O)(=O)c1ccc(C(CC2CCCC2)C(=O)Nc2nc3ccccc3s2)cc1[N+](=O)[O-]` (stereo not drawn) [Example 32, N-Benzothiazol-2-yl-3-cyclopentyl-2-(4-methanesulfonyl-3-nitro-phenyl)-propionamide] came in with a melting point of 108 to 113 °C.

For the compound `O=C(Nc1nc2ccc(F)cc2s1)C(CC1CCCC1)c1ccc(Cl)c(Cl)c1` (stereo not drawn) [Example 4, 3-Cyclopentyl-2-(3,4-dichloro-phenyl)-N-(6-fluoro-benzothiazol-2-yl)-propionamide], the melting point is 131 to 133 °C.

For the compound `CS(=O)(=O)c1ccc(C(CC2CCCC2)C(=O)Nc2nc3ccccc3[nH]2)cc1Br` (stereo not drawn) [Example 24(A), N-(1H-Benzimidazol-2-yl)-2-(3-bromo-4-methanesulfonyl-phenyl)-3-cyclopentyl-propionamide], the melting point is more than 220 °C.

Compound `CS(=O)(=O)c1ccc(C(CC2CCCC2)C(=O)Nc2nc3ccccc3[nH]2)cc1C#N` (stereo not drawn) [Example 28, N-(1H-Benzimidazol-2-yl)-2-(3-cyano-4-methanesulfonyl-phenyl)-3-cyclopentyl-propionamide] gave a melting point of 148 to 152 °C.

In turn, `O=C(Nc1ccc2ccccc2n1)C(CC1CCCC1)c1ccc(Cl)c(Cl)c1` (stereo not drawn) [Example 10, 3-Cyclopentyl-2-(3,4-dichloro-phenyl)-N-quinolin-2-yl-propionamide] registered a melting point of 172 to 173 °C.

For `CS(=O)(=O)c1ccc([C@@H](CC2CCCC2)C(=O)Nc2nc3ccccc3[nH]2)cc1` [Example 13, N-(1H-Benzimidazol-2-yl)-3-cyclopentyl-2(R)-(4-methanesulfonyl-phenyl)-propionamide], the melting point was in the range of 230 to 232 °C.

For the compound `CS(=O)(=O)c1ccc(C(CC2CCCC2)C(=O)Nc2ccc3ccccc3n2)cc1[N+](=O)[O-]` (stereo not drawn) [Example 35, 3-Cyclopentyl-2-(4-methanesulfonyl-3-nitro-phenyl)-N-quinolin-2-yl-propionamide], the melting point was 102 to 106 °C.

Take `CS(=O)(=O)c1ccc([C@@H](CC2CCCC2)C(=O)Nc2nc3ccccc3[nH]2)cc1Cl` [Example 21, N-(1H-Benzimidazol-2-yl)-2(R)-(3-chloro-4-methanesulfonyl-phenyl)-3-cyclopentyl-propionamide]: the melting point is more than 215 °C.

With `CS(=O)(=O)c1ccc(C(CC2CCCC2)C(=O)Nc2nc3ccccc3[nH]2)cc1[N+](=O)[O-]` (stereo not drawn) [Example 34, N-(1H-Benzimidazol-2-yl)-3-cyclopentyl-2-(4-methanesulfonyl-3-nitro-phenyl)-propionamide], the melting point lay within 113 to 117 °C.

Compound `O=C(Nc1nc2ccccc2[nH]1)C(CC1CCCC1)c1ccc(Cl)c(Cl)c1` (stereo not drawn) [Example 8, N-(1H-Benzimidazol-2-yl)-3-cyclopentyl-2-(3,4-dichloro-phenyl)-propionamide] had a melting point of 193.4 to 196.8 °C.

`CS(=O)(=O)c1ccc([C@@H](CC2CCCC2)C(=O)Nc2nc3ccccc3s2)cc1` [Example 14, N-Benzothiazol-2-yl-3-cyclopentyl-2(R)-(4-methanesulfonyl-phenyl)-propionamide] had a melting point of 100 to 105 °C.

Take `CS(=O)(=O)c1ccc(C(CC2CCCC2)C(=O)Nc2ccc3ccccc3n2)cc1C#N` (stereo not drawn) [Example 29, 2-(3-Cyano-4-methanesulfonyl-phenyl)-3-cyclopentyl-N-quinolin-2-yl-propionamide]: the melting point was 95 to 99 °C.

For `CS(=O)(=O)c1ccc(C(CC2CCCC2)C(=O)Nc2nc3ccccc3s2)cc1` (stereo not drawn) [Example 12(A), N-Benzothiazol-2-yl-3-cyclopentyl-2-(4-methanesulfonyl-phenyl)-propionamide], the melting point was in the range of 206 to 209 °C.

In turn, `CS(=O)(=O)c1ccc(C(CC2CCCC2)C(=O)Nc2nc3ccccc3o2)cc1C#N` (stereo not drawn) [Example 27, N-Benzoxazol-2-yl-2-(3-cyano-4-methanesulfonyl-phenyl)-3-cyclopentyl-propionamide] displayed a melting point of 108 to 112 °C.

Regarding `CS(=O)(=O)c1ccc(C(CC2CCCC2)C(=O)Nc2nc3ccccc3s2)cc1C(F)(F)F` (stereo not drawn) [Example 31(A), N-Benzothiazol-2-yl-3-cyclopentyl-2-(4-methanesulfonyl-3-trifluoromethyl-phenyl)-propionamide], the melting point was in the range of 105 to 110 °C.
